Results taken from ChEMBL document CHEMBL2086238, “Identification of ETP-46321, a potent and orally bioavailable PI3K α, δ inhibitor” (Bioorg Med Chem Lett, 2012).
Blank lines part the entries; values can stand above or below the compound they belong to.

Tests used:
[1] = target: PI3-kinase p110-alpha/p85-alpha (Homo sapiens, UniProt P42336); experiment: Inhibition of human PI3Kalpha (p110alpha/p85alpha) by ADP accumulation based HTRF assay; assay type: protein-complex assay; conditions: for Ki: read-out: Ki(app)
[2] = target: Phosphatidylinositol 4,5-bisphosphate 3-kinase catalytic subunit alpha isoform (Homo sapiens, UniProt P42336); experiment: Inhibition of PI3Kalpha in human U2OS cells assessed as inhibition of AKT Ser 473 phosphorylation by Western blot; assay type: cell-based
[3] = target: Phosphatidylinositol 4,5-bisphosphate 3-kinase catalytic subunit gamma isoform (Homo sapiens, UniProt P48736); experiment: Inhibition of human PI3Kgamma by ADP accumulation based HTRF assay; conditions: read-out: Ki(app)
PI3K p110 beta/p85 alpha = PI3K p110 beta/p85 alpha (Homo sapiens, UniProt P42338); experiment: Inhibition of human PI3Kbeta (p110beta/p85alpha) by ADP accumulation based HTRF assay; assay type: protein-complex assay; conditions: read-out: Ki(app)
[4] = target: PI3-kinase p110-delta/p85-alpha (Homo sapiens, UniProt O00329); experiment: Inhibition of human PI3Kdelta (p110delta/p85alpha) by ADP accumulation based HTRF assay; assay type: protein-complex assay; conditions: read-out: Ki(app)
CYP2C9 = CYP2C9 (Homo sapiens, UniProt P11712); experiment: Inhibition of CYP2C9 at 10 uM; assay type: ADME
CYP2D6 = CYP2D6 (Homo sapiens, UniProt P10635); experiment: Inhibition of CYP2D6 at 10 uM; assay type: ADME
[5] = Stability in human liver microsomes at 1 uM incubated for 15 mins; assay type: ADME, Microsome; conditions: read-out: Stability
CYP1A2 = target: T1, CYP1A2 (Homo sapiens, UniProt P05177); experiment: Inhibition of CYP1A2 at 10 uM; assay type: ADME
T1 sequence (P05177 whole entry): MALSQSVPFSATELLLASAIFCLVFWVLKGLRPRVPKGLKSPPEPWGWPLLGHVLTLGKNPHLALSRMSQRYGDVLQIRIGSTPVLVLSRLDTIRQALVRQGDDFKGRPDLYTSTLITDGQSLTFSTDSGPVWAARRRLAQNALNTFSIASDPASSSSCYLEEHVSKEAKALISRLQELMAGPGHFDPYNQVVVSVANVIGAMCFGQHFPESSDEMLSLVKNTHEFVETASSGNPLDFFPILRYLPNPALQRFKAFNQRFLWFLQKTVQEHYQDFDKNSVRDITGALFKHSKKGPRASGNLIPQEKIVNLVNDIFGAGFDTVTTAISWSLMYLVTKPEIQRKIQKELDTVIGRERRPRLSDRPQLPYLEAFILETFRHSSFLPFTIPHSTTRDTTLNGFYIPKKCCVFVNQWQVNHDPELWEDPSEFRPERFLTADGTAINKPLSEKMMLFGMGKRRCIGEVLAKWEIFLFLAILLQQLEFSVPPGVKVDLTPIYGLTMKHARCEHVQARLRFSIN

[6] = Stability in mouse liver microsomes at 1 uM incubated for 15 mins; assay type: ADME, Microsome; conditions: read-out: Stability
CYP3A4 = CYP3A4 (Homo sapiens, UniProt P08684); experiment: Inhibition of CYP3A4 at 10 uM; assay type: ADME
CYP2C19 = CYP2C19 (Homo sapiens, UniProt P33261); experiment: Inhibition of CYP2C19 at 10 uM; assay type: ADME
Sequence of CYP2C19 (P33261 whole entry): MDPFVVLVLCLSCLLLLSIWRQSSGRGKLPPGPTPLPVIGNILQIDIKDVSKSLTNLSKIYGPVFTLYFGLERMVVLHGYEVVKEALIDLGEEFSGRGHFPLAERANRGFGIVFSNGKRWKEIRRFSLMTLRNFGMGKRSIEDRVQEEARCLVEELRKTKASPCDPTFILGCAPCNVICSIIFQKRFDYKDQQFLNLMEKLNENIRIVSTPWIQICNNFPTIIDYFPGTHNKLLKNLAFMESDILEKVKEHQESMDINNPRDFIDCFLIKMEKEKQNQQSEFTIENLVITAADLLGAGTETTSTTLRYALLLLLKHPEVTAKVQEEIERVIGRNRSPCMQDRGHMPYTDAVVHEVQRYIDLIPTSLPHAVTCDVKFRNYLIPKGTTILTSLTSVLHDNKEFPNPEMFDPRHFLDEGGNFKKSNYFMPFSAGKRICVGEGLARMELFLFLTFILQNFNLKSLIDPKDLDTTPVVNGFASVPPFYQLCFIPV

Sequence of PI3-kinase p110-alpha/p85-alpha (P27986 whole entry, canonical isoform): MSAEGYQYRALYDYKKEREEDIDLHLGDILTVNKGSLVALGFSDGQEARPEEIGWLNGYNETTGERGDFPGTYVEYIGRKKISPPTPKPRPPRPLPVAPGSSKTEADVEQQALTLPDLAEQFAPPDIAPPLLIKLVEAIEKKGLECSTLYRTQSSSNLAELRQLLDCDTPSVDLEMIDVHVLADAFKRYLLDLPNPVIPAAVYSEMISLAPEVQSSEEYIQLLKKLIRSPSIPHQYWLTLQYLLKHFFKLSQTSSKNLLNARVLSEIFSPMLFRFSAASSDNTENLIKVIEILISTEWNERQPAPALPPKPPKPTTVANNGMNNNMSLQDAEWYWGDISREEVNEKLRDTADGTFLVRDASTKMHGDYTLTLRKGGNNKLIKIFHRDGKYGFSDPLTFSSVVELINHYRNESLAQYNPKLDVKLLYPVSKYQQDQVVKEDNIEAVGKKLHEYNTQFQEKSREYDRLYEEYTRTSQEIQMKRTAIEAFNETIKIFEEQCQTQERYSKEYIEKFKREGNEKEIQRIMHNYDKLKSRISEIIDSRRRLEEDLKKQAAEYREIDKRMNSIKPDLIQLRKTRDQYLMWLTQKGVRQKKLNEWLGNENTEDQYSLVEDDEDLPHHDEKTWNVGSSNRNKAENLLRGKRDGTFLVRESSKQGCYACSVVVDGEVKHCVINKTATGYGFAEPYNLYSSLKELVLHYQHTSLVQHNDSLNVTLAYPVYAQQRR
Sequence of PI3-kinase p110-alpha/p85-alpha (P42336 whole entry, canonical isoform): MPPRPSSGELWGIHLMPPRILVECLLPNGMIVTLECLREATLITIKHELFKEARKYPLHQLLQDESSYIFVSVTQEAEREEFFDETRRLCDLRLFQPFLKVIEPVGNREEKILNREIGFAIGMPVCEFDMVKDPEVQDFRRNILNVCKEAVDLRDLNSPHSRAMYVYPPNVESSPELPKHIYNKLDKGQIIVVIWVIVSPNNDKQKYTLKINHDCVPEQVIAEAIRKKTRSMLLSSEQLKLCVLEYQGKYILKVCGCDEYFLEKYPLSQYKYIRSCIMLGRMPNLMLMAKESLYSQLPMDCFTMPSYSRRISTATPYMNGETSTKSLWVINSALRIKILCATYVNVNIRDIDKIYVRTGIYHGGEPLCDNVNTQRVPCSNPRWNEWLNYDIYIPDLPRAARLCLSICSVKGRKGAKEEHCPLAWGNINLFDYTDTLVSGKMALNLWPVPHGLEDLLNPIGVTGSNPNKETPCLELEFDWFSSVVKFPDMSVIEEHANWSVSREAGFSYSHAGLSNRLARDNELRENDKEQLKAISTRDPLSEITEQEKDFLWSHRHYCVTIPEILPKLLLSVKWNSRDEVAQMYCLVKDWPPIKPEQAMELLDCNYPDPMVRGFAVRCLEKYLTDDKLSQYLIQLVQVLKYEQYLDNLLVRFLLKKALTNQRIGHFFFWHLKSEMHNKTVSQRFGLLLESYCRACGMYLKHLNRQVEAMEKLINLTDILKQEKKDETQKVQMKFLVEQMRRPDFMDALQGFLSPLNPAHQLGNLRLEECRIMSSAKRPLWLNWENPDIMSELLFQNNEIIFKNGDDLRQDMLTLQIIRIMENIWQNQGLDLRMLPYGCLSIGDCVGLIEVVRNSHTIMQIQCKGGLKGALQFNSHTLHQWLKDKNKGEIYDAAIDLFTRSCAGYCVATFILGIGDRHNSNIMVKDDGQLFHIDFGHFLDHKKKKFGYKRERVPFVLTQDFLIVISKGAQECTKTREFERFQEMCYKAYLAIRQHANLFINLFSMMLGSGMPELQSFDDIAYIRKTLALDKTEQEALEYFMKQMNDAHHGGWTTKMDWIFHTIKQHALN
Sequence of Phosphatidylinositol 4,5-bisphosphate 3-kinase catalytic subunit alpha isoform (P42336 whole entry, canonical isoform): as above
Sequence of CYP3A4 (P08684 whole entry): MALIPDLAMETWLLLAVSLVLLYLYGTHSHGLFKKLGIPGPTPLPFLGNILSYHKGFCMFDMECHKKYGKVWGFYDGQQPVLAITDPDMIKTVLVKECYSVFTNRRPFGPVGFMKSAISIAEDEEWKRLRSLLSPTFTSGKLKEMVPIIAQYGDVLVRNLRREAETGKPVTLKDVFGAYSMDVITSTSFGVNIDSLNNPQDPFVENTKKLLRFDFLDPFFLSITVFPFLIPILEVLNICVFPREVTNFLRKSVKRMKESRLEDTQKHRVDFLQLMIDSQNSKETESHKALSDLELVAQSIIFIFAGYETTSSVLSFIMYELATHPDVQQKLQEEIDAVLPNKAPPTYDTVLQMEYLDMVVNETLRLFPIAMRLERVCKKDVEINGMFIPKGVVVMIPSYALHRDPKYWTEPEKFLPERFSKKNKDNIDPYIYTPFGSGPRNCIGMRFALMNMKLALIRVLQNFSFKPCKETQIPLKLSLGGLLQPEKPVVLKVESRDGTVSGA
Sequence of CYP2C9 (P11712 whole entry): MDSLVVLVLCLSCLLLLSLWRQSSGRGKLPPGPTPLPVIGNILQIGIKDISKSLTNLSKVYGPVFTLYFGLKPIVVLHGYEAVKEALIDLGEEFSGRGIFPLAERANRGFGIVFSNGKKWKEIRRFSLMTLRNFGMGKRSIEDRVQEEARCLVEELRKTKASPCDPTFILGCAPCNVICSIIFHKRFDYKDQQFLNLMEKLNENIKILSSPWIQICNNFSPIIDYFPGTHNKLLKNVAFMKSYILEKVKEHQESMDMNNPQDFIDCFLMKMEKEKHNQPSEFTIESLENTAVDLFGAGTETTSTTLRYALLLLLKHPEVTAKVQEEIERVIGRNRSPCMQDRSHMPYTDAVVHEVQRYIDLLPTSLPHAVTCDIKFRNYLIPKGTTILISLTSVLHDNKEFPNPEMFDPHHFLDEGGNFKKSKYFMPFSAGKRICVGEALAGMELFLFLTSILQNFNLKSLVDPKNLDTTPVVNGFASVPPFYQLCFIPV
Sequence of PI3K p110 beta/p85 alpha (P27986 whole entry): as the sequence (P27986 whole entry, canonical isoform) above
Sequence of PI3K p110 beta/p85 alpha (P42338 whole entry): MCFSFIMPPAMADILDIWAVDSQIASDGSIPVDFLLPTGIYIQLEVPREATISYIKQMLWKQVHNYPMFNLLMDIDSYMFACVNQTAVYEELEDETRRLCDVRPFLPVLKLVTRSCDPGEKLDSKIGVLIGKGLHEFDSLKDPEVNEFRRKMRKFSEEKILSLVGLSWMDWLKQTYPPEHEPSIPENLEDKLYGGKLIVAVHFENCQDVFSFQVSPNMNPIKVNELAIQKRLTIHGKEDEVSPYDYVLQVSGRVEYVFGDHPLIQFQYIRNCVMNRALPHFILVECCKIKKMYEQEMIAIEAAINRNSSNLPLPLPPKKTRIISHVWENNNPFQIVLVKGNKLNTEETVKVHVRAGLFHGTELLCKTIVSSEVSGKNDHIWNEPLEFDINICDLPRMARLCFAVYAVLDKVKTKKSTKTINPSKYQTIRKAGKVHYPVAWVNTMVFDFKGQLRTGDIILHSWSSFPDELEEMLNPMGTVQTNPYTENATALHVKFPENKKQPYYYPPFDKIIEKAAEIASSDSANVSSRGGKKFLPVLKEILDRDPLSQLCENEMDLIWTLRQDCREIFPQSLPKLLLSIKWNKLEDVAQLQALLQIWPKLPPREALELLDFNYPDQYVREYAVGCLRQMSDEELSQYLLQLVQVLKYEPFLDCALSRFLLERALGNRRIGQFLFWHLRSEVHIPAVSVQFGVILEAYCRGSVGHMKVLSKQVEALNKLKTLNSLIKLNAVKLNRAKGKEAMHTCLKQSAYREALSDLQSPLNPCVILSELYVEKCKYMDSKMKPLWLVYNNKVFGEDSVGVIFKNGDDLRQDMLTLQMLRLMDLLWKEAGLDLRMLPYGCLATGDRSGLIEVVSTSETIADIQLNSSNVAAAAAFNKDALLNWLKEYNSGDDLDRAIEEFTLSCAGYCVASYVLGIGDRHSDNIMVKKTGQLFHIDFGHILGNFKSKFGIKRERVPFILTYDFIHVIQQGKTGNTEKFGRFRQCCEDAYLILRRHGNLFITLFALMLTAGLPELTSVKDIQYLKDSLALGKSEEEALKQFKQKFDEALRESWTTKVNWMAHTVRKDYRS
Sequence of CYP2D6 (P10635 whole entry): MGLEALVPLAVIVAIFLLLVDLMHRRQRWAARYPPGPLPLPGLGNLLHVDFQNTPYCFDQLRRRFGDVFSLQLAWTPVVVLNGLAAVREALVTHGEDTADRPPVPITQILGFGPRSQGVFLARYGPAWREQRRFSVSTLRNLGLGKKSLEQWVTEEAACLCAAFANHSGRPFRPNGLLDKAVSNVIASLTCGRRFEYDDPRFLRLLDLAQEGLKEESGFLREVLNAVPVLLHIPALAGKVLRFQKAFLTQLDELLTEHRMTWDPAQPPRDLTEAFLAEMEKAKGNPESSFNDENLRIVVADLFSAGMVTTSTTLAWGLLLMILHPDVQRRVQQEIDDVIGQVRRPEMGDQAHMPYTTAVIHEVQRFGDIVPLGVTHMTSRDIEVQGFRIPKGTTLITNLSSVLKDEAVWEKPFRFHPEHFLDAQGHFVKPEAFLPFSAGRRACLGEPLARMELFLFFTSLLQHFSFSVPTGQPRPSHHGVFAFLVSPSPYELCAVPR

- IC50 [1]: 11.4 nM
SMILES: CNc1ncc(-c2nc(N3CCOCC3)c3nc(CN4CCN(S(C)(=O)=O)CC4)cn3c2Cl)cn1

- IC50 [1]: 21.6 nM
SMILES: Cc1ncc(-c2nc(N3CCOCC3)c3nc(CN4CCN(S(C)(=O)=O)CC4)cn3c2Cl)cn1

- IC50 [1]: > 10000 nM
SMILES: CS(=O)(=O)N1CCN(Cc2cn3cc(-c4ccc5[nH]ccc5c4)nc(N4CCOCC4)c3n2)CC1

- IC50 [2]: 480 nM
SMILES: CN(C)CC(=O)N1CCN(Cc2cn3cc(-c4cnc(N)nc4)nc(N4CCOCC4)c3n2)CC1

- IC50 [1]: > 10000 nM
SMILES: CS(=O)(=O)N1CCN(Cc2cn3cc(-c4ccc5[nH]ncc5c4)nc(N4CCOCC4)c3n2)CC1

- IC50 [1]: 1010 nM
SMILES: CS(=O)(=O)N1CCN(Cc2cn3cc(-c4cnc(N)c(C#N)c4)nc(N4CCOCC4)c3n2)CC1

- Ki [3]: 124 nM
- Ki (PI3K p110 beta/p85 alpha): 319 nM
- IC50 [1]: 5.5 nM
- Ki [1]: 6.2 nM
- Ki [4]: 14.7 nM
- IC50 [2]: 120 nM
SMILES: C[C@H]1CN(Cc2cn3cc(-c4cnc(N)nc4)nc(N4CCOCC4)c3n2)CCN1S(C)(=O)=O

SMILES: CS(=O)(=O)N1C2CCC1CN(Cc1cn3cc(-c4cnc(N)nc4)nc(N4CCOCC4)c3n1)C2
- IC50 [1]: 108 nM

- IC50 [1]: 160 nM
SMILES: COc1ncc(-c2cn3cc(CN4CCN(S(C)(=O)=O)CC4)nc3c(N3CCOCC3)n2)cn1

- IC50 [1]: 13 nM
SMILES: Cc1nc(N)ncc1-c1nc(N2CCOCC2)c2nc(CN3CCN(S(C)(=O)=O)CC3)cn2c1Cl

- IC50 [1]: 3.2 nM
- IC50 [2]: 244 nM
SMILES: C[C@@H]1CN(S(C)(=O)=O)C[C@H](C)N1Cc1cn2cc(-c3cnc(N)nc3)nc(N3CCOCC3)c2n1

- IC50 [1]: 117 nM
SMILES: CS(=O)(=O)N1CC2CN(Cc3cn4cc(-c5cnc(N)nc5)nc(N5CCOCC5)c4n3)CC2C1 (centres undefined)

- IC50 [1]: 2.6 nM
SMILES: C[C@@H]1CN(Cc2cn3cc(-c4cnc(N)nc4)nc(N4CCOCC4)c3n2)CCN1S(C)(=O)=O

- IC50 [1]: 1110 nM
SMILES: COc1cncc(-c2cn3cc(CN4CCN(S(C)(=O)=O)CC4)nc3c(N3CCOCC3)n2)c1

- IC50 [1]: 123 nM
SMILES: CS(=O)(=O)N1CCN(Cc2cn3cc(-c4cncnc4)nc(N4CCOCC4)c3n2)CC1

- inhibition at 10 µM (CYP2C9): < 30%
- inhibition at 10 µM (CYP2D6): < 30%
- remaining at 0.25 h, 1 µM [5]: 98%
- inhibition at 10 µM (CYP1A2): < 30%
- remaining at 0.25 h, 1 µM [6]: 64%
- inhibition at 10 µM (CYP3A4): < 30%
- IC50 [1]: 13.3 nM
- inhibition at 10 µM (CYP2C19): < 30%
- IC50 [2]: 98.5 nM
SMILES: CCS(=O)(=O)N1CCN(Cc2cn3cc(-c4cnc(N)nc4)nc(N4CCOCC4)c3n2)CC1

- inhibition at 10 µM (CYP2C9): < 30%
- Ki [3]: 26.7 nM
- inhibition at 10 µM (CYP2D6): < 30%
- remaining at 0.25 h, 1 µM [5]: 82%
- Ki (PI3K p110 beta/p85 alpha): 79.8 nM
- inhibition at 10 µM (CYP1A2): < 30%
- remaining at 0.25 h, 1 µM [6]: 96%
- inhibition at 10 µM (CYP3A4): < 30%
- IC50 [1]: 6.8 nM
- Ki [1]: 7.4 nM
- Ki [4]: 5.06 nM
- inhibition at 10 µM (CYP2C19): < 30%
- IC50 [2]: 10.2 nM
SMILES: CS(=O)(=O)N1CCN(Cc2cn3cc(-c4cnc(N)nc4C(F)(F)F)nc(N4CCOCC4)c3n2)CC1

- IC50 [1]: 6.8 nM
SMILES: CS(=O)(=O)N1CCN(Cc2cn3c(Cl)c(-c4cnc(N)nc4C(F)(F)F)nc(N4CCOCC4)c3n2)CC1

- IC50 [1]: 2500 nM
SMILES: CS(=O)(=O)N1CCN(Cc2cn3cc(-c4cccc5[nH]ccc45)nc(N4CCOCC4)c3n2)CC1

- IC50 [1]: 16.4 nM
SMILES: CNc1ncc(-c2cn3cc(CN4CCN(S(C)(=O)=O)CC4)nc3c(N3CCOCC3)n2)cn1

- IC50 [1]: 28.7 nM
SMILES: CS(=O)(=O)C1CCN(Cc2cn3cc(-c4cnc(N)nc4)nc(N4CCOCC4)c3n2)CC1

- IC50 [1]: 34.6 nM
SMILES: C[C@H](O)C(=O)N1CCN(Cc2cn3cc(-c4cnc(N)nc4)nc(N4CCOCC4)c3n2)CC1

- IC50 [1]: 166 nM
SMILES: CS(=O)(=O)N1CCN(Cc2cn3c(Cl)c(-c4cnc5[nH]ccc5c4)nc(N4CCOCC4)c3n2)CC1
